From ChEMBL document CHEMBL4376872, “Scaffold Hopping of Natural Product Evodiamine: Discovery of a Novel Antitumor Scaffold with Excellent Potency against Colon Cancer” (J Med Chem, 2020)
In brackets after ≈: the same amount, converted by molar mass. Activity calls are given as the source filed them. No cut-off for these calls is given here.

Legend:
[1] = system: HCT-116; experiment: Cell cycle arrest in human HCT116 cells assessed as accumulation in G2 phase at 4 nM incubated for 24 hrs by propidium iodide staining based flow cytometry (reference value: 12.52 %); assay type: functional
[2] = Aqueous solubility of compound at pH 7.4; assay type: physicochemical
[3] = biological target: Tyrosine-protein phosphatase non-receptor type 11 (Homo sapiens) (UniProt Q06124); experiment: Inhibition of SHP2 (unknown origin) using DiFMUP as substrate at 5 uM incubated for 30 mins by fluorescence based analysis
[4] = system: HCT-116; experiment: Cell cycle arrest in human HCT116 cells assessed as accumulation in S phase at 4 nM incubated for 24 hrs by propidium iodide staining based flow cytometry (reference value: 42.31 %); assay type: functional
[5] = biological target: Poly [ADP-ribose] polymerase tankyrase-2 (Homo sapiens) (UniProt Q9H2K2); experiment: Inhibition of TNKS2 (unknown origin) using biotin-NAD+, NAD+ and sIDNA as substrate at 5 uM incubated for 1 hr by ELISA relative to control
[6] = biological target: Poly [ADP-ribose] polymerase 1 (Homo sapiens) (UniProt P09874); experiment: Inhibition of PARP1 (unknown origin) using biotin-NAD+, NAD+ and sIDNA as substrate at 5 uM incubated for 1 hr by ELISA relative to control
[7] = biological target: Tyrosine-protein kinase ABL1 (Homo sapiens) (UniProt P00519); experiment: Inhibition of Abl (unknown origin) using Abltide as substrate at 5 uM incubated for 40 mins in presence of 10 uM ATP by kiase-Glo luminescence assay relative to control
[8] = biological target: DNA topoisomerase 2-alpha (Homo sapiens) (UniProt P11388); experiment: Inhibition of human Top2alpha assessed as decrease in relaxation of supercoiled pBR322 plasmid DNA at 100 uM using supercoiled pBR322 plasmid DNA as substrate incubated for 30 mins by agarose gel electrophoresis analysis
[9] = biological target: Lysine-specific demethylase 6B (Homo sapiens) (UniProt O15054); experiment: Inhibition of JMJD3 (unknown origin) using biotinylated histone H3 peptide as substrate at 5 uM incubated for 60 mins by AlphaScreen assay relative to control
[10] = system: K562; experiment: Antiproliferative activity against human K562 cells assessed as reduction in cell viability incubated for 72 hrs by CCK8 assay; assay type: functional, cell-based; details: K562, 72 h
[11] = Antiproliferative activity against human SW579 cells assessed as reduction in cell viability incubated for 72 hrs by CCK8 assay; assay type: functional, cell-based; details: SW579, 72 h
[12] = system: PC-3; experiment: Antiproliferative activity against human PC3 cells assessed as reduction in cell viability incubated for 72 hrs by CCK8 assay; assay type: functional, cell-based; details: PC-3, 72 h
[13] = biological target: CDK9/cyclin T1 (Homo sapiens) (UniProt O60563+P50750); experiment: Inhibition of CDK9/Cyclin T1 (unknown origin) using PDKtide as substrate at 5 uM incubated for 40 mins in presence of 10 uM ATP by kinase-Glo luminescence assay relative to control; assay type: protein-complex assay
[14] = biological target: CDK4/Cyclin D3 (Homo sapiens) (UniProt P11802+P30281); experiment: Inhibition of CDK4/Cyclin D3 (unknown origin) using Rb as substrate at 5 uM incubated for 40 mins in presence of 10 uM ATP by kinase-Glo luminescence assay relative to control; assay type: protein-complex assay
[15] = system: HCT-116; experiment: Cell cycle arrest in human HCT116 cells assessed as accumulation in G1 phase at 12 nM incubated for 24 hrs by propidium iodide staining based flow cytometry (reference value: 45.18 %); assay type: functional
[16] = system: Tyrosine-protein kinase ABL1 (Homo sapiens), P00519 [T315I]; experiment: Inhibition of Abl T315I mutant (unknown origin) using Abltide as substrate at 5 uM incubated for 40 mins in presence of 10 uM ATP by kiase-Glo luminescence assay relative to control

Chain of DNA topoisomerase 2-alpha (Homo sapiens) (P11388 whole entry): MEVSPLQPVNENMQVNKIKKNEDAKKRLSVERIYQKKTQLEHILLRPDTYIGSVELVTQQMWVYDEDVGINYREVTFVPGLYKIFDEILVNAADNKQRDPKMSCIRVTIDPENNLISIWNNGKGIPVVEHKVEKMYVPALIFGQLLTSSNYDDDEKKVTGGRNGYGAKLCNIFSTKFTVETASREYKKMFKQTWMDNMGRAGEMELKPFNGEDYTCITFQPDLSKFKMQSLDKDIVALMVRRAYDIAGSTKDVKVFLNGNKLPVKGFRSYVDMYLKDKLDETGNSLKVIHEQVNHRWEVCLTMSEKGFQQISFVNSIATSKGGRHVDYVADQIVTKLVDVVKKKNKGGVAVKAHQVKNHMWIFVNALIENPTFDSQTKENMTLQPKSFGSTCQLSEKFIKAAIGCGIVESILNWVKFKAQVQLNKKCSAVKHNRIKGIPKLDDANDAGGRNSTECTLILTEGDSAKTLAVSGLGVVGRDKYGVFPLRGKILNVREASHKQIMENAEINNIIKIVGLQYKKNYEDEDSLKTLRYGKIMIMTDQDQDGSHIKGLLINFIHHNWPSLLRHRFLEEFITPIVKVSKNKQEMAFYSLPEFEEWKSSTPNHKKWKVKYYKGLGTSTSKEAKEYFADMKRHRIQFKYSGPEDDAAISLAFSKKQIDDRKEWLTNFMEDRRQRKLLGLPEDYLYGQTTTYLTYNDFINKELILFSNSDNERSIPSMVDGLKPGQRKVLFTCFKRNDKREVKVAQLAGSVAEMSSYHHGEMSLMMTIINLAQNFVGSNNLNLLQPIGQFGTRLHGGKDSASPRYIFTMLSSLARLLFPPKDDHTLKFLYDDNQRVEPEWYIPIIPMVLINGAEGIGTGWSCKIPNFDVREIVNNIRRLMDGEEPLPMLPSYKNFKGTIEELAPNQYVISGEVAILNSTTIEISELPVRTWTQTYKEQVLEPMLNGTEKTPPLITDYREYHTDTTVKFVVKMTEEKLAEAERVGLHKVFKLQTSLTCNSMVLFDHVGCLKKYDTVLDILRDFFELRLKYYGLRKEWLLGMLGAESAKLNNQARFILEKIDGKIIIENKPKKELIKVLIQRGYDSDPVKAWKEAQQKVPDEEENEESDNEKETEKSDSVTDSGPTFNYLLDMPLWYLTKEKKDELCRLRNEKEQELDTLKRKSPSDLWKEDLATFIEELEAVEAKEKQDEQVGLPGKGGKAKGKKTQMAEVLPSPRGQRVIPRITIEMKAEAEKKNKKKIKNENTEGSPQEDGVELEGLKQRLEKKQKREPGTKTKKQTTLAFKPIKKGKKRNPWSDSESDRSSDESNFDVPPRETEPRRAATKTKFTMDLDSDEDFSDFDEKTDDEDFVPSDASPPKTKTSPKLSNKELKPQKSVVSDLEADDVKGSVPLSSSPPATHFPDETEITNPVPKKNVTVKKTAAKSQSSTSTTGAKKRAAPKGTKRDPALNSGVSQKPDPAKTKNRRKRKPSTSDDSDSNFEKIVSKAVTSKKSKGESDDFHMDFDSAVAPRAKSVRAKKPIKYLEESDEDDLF
Chain of Lysine-specific demethylase 6B (Homo sapiens) (O15054 whole entry): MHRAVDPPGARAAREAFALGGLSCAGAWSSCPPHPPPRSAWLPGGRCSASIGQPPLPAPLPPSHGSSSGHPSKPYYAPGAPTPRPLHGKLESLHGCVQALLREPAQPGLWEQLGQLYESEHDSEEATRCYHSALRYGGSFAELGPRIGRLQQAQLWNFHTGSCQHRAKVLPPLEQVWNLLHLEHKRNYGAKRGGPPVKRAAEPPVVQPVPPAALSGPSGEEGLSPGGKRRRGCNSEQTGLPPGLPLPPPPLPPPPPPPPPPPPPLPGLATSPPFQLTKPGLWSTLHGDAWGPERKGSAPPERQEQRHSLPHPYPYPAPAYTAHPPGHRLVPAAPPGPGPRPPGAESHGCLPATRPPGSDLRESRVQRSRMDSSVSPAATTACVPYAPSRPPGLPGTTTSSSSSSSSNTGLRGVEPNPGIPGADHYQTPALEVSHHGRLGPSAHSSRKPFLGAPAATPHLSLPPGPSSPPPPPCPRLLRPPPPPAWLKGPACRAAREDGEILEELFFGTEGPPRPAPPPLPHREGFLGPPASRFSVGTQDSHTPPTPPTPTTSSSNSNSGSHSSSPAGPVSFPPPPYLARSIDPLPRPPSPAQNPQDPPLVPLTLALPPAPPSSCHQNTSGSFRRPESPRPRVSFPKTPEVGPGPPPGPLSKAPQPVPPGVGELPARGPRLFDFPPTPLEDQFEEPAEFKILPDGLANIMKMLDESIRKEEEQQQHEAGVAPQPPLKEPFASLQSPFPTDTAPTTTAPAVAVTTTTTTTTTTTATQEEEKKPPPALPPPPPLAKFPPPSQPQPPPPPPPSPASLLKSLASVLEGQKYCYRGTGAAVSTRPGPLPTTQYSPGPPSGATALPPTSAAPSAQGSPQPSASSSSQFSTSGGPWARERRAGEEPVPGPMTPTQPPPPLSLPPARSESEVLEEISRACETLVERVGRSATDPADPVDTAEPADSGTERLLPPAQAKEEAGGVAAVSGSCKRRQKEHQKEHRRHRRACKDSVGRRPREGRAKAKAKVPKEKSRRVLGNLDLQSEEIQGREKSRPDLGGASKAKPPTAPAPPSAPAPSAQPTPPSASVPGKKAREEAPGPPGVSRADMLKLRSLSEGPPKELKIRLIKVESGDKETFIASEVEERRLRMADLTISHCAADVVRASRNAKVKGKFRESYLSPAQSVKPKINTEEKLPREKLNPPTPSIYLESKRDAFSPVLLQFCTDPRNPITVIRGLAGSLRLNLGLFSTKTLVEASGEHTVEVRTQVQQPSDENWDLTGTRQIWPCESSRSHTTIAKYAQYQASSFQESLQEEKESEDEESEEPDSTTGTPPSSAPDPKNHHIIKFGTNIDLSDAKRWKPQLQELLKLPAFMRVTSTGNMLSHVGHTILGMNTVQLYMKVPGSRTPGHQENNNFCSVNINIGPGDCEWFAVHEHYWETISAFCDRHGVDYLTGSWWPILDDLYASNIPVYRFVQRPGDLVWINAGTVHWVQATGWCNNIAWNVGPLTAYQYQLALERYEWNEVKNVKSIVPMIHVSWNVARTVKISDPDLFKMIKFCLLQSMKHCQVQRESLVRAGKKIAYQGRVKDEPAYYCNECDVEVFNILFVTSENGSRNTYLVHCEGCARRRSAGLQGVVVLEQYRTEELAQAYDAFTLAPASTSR
Chain of Poly [ADP-ribose] polymerase tankyrase-2 (Homo sapiens) (Q9H2K2 whole entry): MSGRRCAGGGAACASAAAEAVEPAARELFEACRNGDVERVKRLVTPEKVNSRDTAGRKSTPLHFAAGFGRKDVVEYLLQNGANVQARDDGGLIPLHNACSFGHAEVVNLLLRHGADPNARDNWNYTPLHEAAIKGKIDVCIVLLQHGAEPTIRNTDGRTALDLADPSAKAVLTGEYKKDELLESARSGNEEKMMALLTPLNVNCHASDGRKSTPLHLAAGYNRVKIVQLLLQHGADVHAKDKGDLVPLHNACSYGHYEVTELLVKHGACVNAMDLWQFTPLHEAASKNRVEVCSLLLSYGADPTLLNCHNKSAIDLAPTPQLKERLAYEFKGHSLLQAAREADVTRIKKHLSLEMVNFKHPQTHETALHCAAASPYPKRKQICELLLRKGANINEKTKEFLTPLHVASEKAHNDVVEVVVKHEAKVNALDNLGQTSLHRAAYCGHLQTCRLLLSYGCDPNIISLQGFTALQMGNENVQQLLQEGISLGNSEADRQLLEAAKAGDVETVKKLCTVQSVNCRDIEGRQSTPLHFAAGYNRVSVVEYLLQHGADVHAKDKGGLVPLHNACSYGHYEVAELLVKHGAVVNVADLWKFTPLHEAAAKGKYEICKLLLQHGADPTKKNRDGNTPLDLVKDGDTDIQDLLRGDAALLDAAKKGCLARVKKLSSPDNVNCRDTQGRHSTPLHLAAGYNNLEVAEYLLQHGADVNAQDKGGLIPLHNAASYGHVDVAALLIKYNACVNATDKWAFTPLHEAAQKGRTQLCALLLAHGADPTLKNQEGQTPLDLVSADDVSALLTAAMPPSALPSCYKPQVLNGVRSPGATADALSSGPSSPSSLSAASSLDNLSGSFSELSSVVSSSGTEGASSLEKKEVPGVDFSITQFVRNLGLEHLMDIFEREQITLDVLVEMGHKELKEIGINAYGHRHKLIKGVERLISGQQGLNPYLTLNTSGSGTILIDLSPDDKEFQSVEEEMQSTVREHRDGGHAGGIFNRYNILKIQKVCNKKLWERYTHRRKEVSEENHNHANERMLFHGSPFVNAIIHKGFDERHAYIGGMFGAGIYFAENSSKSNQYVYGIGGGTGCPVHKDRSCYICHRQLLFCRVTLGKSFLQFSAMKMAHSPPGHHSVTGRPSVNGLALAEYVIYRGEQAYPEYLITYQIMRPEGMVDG

solubility [2]: 1.5 µg/mL (≈ 4.27 µM) | inhibition [3]: < 20% | inhibition [5]: < 20% | inhibition [6]: < 20% | inhibition [7]: < 20% | inhibition [8]: inactive | inhibition [9]: < 20% | IC50 [10]: < 0.003 µM | IC50 [12]: 0.3 µM | inhibition [13]: < 20% | inhibition [14]: < 20% | inhibition [16]: < 20%
SMILES: COc1ccc2c(c1)cc1n2CCN2C(=O)c3cc(F)ccc3N(C)C12 (stereo unspecified)
Activity [1]: 17.73% | Activity [4]: 39.26% | IC50 [11]: 6.1 µM | Activity [15]: 24.07%
